Assay results taken from patent US7091220B2, “Substituted indole Mannich bases” (Gruenenthal GmbH, priority 1999, dated 2006).

What was measured:
[1] = test system: phenylquinone-induced writhing in mice; assay: Analgesia test: phenylquinone-induced writhing in mice; format: in vivo; conditions: male NMRI mice; standard dose 10 mg/kg intravenous, 10 minutes before phenylquinone intraperitoneally; counted 5–20 minutes
Description: The in-depth investigation of the compounds according to the invention for their analgesic activity was carried out in the phenylquinone-induced writhing in mice (modified by I. C. Hendershot, J. Forsaith, J. Pharmacol. Exp. Ther. 125, 237–240 (1959)). Male NMRI mice weighing 25–30 g were used for this. Groups of 10 animals per substance dose received 0.3 ml/mouse of a 0.02% aqueous solution of phenylquinone (phenylbenzoquinone, Sigma, Deisenhofen; preparation of the solution with the addition of 5% ethanol and storage in a water bath at 45° C.) administered intraperitoneally 10 minutes after intravenous administration of the test substances. The animals were placed individually in observation cages. The number of pain-induced stretching movements (so-called writhing reactions=straightening of the body with stretching of the hind extremities) were counted by means of a push-button counter for 5–20 minutes after the administration of phenylquinone. Animals which received only physiological saline solution were also run as a control.
The substances were tested in the standard dose of 10 mg/kg. The inhibition of the writhing reactions by a substance was calculated according to the following equation: […]
The in-depth investigation of the compounds according to the invention for their analgesic activity was carried out in the phenylquinone-induced writhing in mice as described above.

[2] = test system: α2-subtype of the human α-adrenergic receptor; assay: SPA test, affinity for the α2-subtype of the human α-adrenergic receptor; format: binding; conditions: 10 µM
Description: Wide-ranging testing of the indole Mannich bases according to the invention for their activity was carried out by the conventional high throughput screening methods, such as are described in John P. Devlin, High Throughput Screening, 1997, Marcel Dekker Inc. They are introduced here as a reference and are therefore part of the disclosure.
The action of the indole Mannich bases according to the invention is determined in particular by the affinity for the N-methyl-D-aspartate (NMDA) receptor family, for (α-adrenergic receptors and opioid receptors.
The compounds of the general formula 1 according to the invention investigated are suitable as ligands for the α2-subtype of the human α-adrenergic receptor, which is of importance for pain sensation.
The affinity of the compounds according to the invention for this α2-subtype of the α-adrenergic receptor has been determined with the aid of the SPA test such as is described in John P. Devlin, High Throughput Screening, Marcel Dekker Inc. 1997, pages 307 to 316. This literature is introduced herewith as a reference and is therefore part of the disclosure. The affinities of the compounds according to the invention were in each case determined at a concentration of 10 μM.

| SMILES | Inhibition of the writhing reaction in % [1] | % Inhibition of α2 (humans), 10 μM [2] |
| --- | --- | --- |
| CN(C)C(c1ccccc1)c1c[nH]c2ccccc12 (stereo not shown) [Example 46, [(1H-Indol-3-yl)-phenylmethyl]-dimethylamine] | 41% | – |
| Cn1cc(C(c2ccccc2)N2CCCCC2)c2ccccc21 (stereo not shown) [Example 48, 1-Methyl-3-(phenylpiperidin-1-yl-methyl)-1H-indole] | 6% | – |
| c1ccc(C(c2c[nH]c3ccccc23)N2CCCCC2)cc1 (stereo not shown) [Example 49, 3-(Phenylpiperidin-1-yl-methyl)-1H-indole] | 82% | – |
| c1ccc(C(c2c[nH]c3ccccc23)N2CCCC2)cc1 (stereo not shown) [Example 47, 3-(Phenylpyrrolidin-1-yl-methyl)-1H-indole] | 57% | – |
| Cn1cc(C(c2ccccc2)N2CCOCC2)c2ccccc21 (stereo not shown) [Example 23, 1-Methyl-3-(morpholin-4-yl-phenylmethyl)-1H-indole] | 75% | – |
| CN(C)C(c1c(F)cccc1Cl)c1cn(C)c2ccccc12 (stereo not shown) [Example 56, [(2-Chloro-6-fluoro-phenyl)-(1-methyl-1H-indol-3-yl)-methyl]-dimethyl-amine] | – | 39% |
| CN(C)C(c1ccccc1)c1cn(C)c2ccccc12 (stereo not shown) [Example 22, Dimethyl-[(1-methyl-1H-indol-3-yl)-phenylmethyl]-amine] | 39% | – |
